What was measured:
[1] = tested on: Ustilago avenae (triadimefon-resistant and -sensitive strains); assay type: cell-based; details: EC50 resistant strain / EC50 sensitive strain, 50 to 54 hours
[2] = tested on: Septoria nodorum (propiconazole-resistant and -sensitive strains); assay type: cell-based; details: EC50 resistant strain / EC50 sensitive strain, 50 to 54 hours
[3] = tested on: Cladosporium cucumerinum (fenarimol-resistant and -sensitive strains); assay type: cell-based; details: EC50 resistant strain / EC50 sensitive strain, 50 to 54 hours
Septoria nodorum = assay: In vivo fungicidal evaluation, Wheat Septoria Nodorum (WSN); details: 200 ppm foliar spray
Experimental: Test compounds are dissolved or suspended in acetone and diluted with deionized water containing about 0.05% TWEEN®20, a polyoxyethylene sorbitan monolaurate surfactant manufactured by Atlas Chemical Industries, to give a concentration of 200 ppm.
Host plants are sprayed with the test solution, dried and inoculated with fungi. When disease symptom development is optimal, the plants are rated for disease control according to the rating scale shown below. Each test contains inoculated treated plants, inoculated untreated plants and a reference standard. When more than one test is run, the data are averaged.
WSN Wheat Septoria Nodorum

Cercospora beticola = assay: In vivo fungicidal evaluation, Sugar Beet Cercospora (SBC); details: 200 ppm foliar spray; further: ranges in brackets are in %
Experimental: (§1) Test compounds are dissolved or suspended in acetone and diluted with deionized water containing about 0.05% TWEEN®20, a polyoxyethylene sorbitan monolaurate surfactant manufactured by Atlas Chemical Industries, to give a concentration of 200 ppm. Host plants are sprayed with the test solution, dried and inoculated with fungi. When disease symptom development is optimal, the plants are rated for disease control according to the rating scale shown below. Each test contains inoculated treated plants, inoculated untreated plants and a reference standard. When more than one test is run, the data are averaged. The data obtained are shown in Table I. |SBC Sugar Beet Cercospora | Cercospora beticola

[4] = tested on: Erysiphe graminis f. sp. tritici; assay: In vivo fungicidal evaluation, Wheat Powdery Mildew (WPM); details: 200 ppm foliar spray; further: ranges in brackets are in %
Experimental: as §1, with “|WPM Wheat Powdery Mildew” for “|SBC Sugar Beet Cercospora”, “Erysiphe graminis | f. sp. tritici” for “Cercospora beticola”

Pyricularia grisea = assay type: in vivo; details: Rice Blast; 200 ppm foliar spray
Venturia inaequalis = assay: In vivo fungicidal evaluation, Apple Scab (AS); details: 200 ppm foliar spray; further: ranges in brackets are in %
Experimental: as §1, with “|AS Apple Scab Venturia inaequalis” for “|SBC Sugar Beet Cercospora | Cercospora beticola”

Alternaria solani = assay: In vivo fungicidal evaluation, Tomato Early Blight (TEB); details: 200 ppm foliar spray; further: ranges in brackets are in %
Experimental: as §1, with “|TEB Tomato Early Blight” for “|SBC Sugar Beet Cercospora”, “Alternaria solani” for “Cercospora beticola”

Rhizoctonia solani = assay: In vitro fungicidal evaluation, RHIZSO; assay type: cell-based; details: 25 ppm; 3-7 days at 21° C. Further: ranges in brackets are in %.
Experimental: (§2) Test compounds are dissolved or suspended in acetone and dispersed into cell well plates containing a suspension of ground fungal mycelia/spores in a nutrient broth. Assay plates are incubated for 3-7 days at 21° C. Growth inhibition is measured visually and is rated using the following scale:
(§3) Untreated controls, solvent blanks and reference standards are included in each test.
(§4) Assay fungi include the plant pathogens, Pythium ultimum (PYTHUL); Rhizoctonia solani (RHIZSO); Fusarium oxysporum f. sp. cucumerinum (FUSOXC); and Pseudocercosporella herpotrichoides (PSDCHE).
(§5) When more than one test is run, the data are averaged. The compounds evaluated are reported by compound number given in Example 3.

Pythium ultimum = assay: In vitro fungicidal evaluation, PYTHUL; assay type: cell-based; details: 25 ppm; 3-7 days at 21° C. Further: ranges in brackets are in %.
Experimental: as §2, §3, §4, §5

[5] = tested on: Fusarium oxysporum f. sp. cucumerinum; assay: In vitro fungicidal evaluation, FUSOXC; assay type: cell-based; details: 25 ppm; 3-7 days at 21° C. Further: ranges in brackets are in %.
Experimental: as §2, §3, §4, §5

[6] = tested on: Pseudocercosporella herpotrichoides; assay: In vitro fungicidal evaluation, PSDCHE; assay type: cell-based; details: 25 ppm; 3-7 days at 21° C. Further: ranges in brackets are in %.
Experimental: as §2, §3, §4, §5

Botrytis cinerea = assay: In vivo fungicidal evaluation, Pepper Botrytis (PB); details: 200 ppm foliar spray; further: ranges in brackets are in %
Experimental: as §1, with “|PB Pepper Botrytis Botrytis cinerea” for “|SBC Sugar Beet Cercospora | Cercospora beticola”

Plasmopara viticola = assay: In vivo fungicidal evaluation, Grape Downy Mildew (GDM); details: 200 ppm foliar spray; further: ranges in brackets are in %
Experimental: as §1, with “|GDM Grape Downy Mildew” for “|SBC Sugar Beet Cercospora”, “Plasmopara viticola” for “Cercospora beticola”

Row | Compound | Resistance Factor, Ustilago avenae [1] | Resistance Factor, Septoria nodorum [2] | Resistance Factor, Cladosporium cucumerinum [3] | Disease control rating, WSN (Septoria nodorum) | Disease control rating, SBC (Cercospora beticola) | Disease control rating, WPM [4] | Disease control rating, RB (Pyricularia grisea) | Disease control rating, AS (Venturia inaequalis) | Disease control rating, TEB (Alternaria solani) | Growth inhibition rating, RHIZSO (Rhizoctonia solani) | Growth inhibition rating, PYTHUL (Pythium ultimum) | Growth inhibition rating, FUSOXC [5] | Growth inhibition rating, PSDCHE [6] | Disease control rating, PB (Botrytis cinerea) | Disease control rating, GDM (Plasmopara viticola)
1 | OC(c1ccc(Cl)cc1)(c1cncnc1)c1ccccc1Cl (centres unmarked) [Fenarimol, reference compound] | 9.9 | 9.6 | – | – | – | – | – | – | – | – | – | – | – | – | –
2 | CC(C)(C)C(O)(CCc1ccc(Cl)cc1)Cn1cncn1 (centres unmarked) [Tebuconazole, reference compound] | – | 6.1 | – | – | – | – | – | – | – | – | – | – | – | – | –
3 | Clc1ccc(COC(Cn2ccnc2)c2ccc(Cl)cc2Cl)cc1 (centres unmarked) [Econazole nitrate, reference compound] | 2.0 | 1.8 | 2.0 | – | – | – | – | – | – | – | – | – | – | – | –
4 | Fc1ccc(B(OC(Cn2ccnc2)c2ccc(Cl)cc2Cl)c2ccc(F)cc2)cc1 (centres unmarked) [Compound 1, 1-(2,4-Dichlorophenyl)-2-(imidazol-1-yl)ethyl bis(p-fluorophenyl)borinate] | 2.6 | 1.2 | 1.5 | 0 (0) | 6 (75-89) | 8 (96-99) | 8 (96-99) | 0 (0) | 4 (45-59) | 7 (90-99) | 5 (60-89) | 5 (60-89) | 0 (0) | 0 (0) | 0 (0)
5 | Fc1ccc(B(OC(c2ccc(Cl)cc2)(c2cncnc2)c2ccccc2Cl)c2ccc(F)cc2)cc1 (centres unmarked) [Compound 5, (o-Chlorophenyl)(p-chlorophenyl)(5-pyrimidinyl)methyl bis(p-fluorophenyl)borinate] | – | – | – | 7 (90-95) | 7 (90-95) | 8 (96-99) | 0 (0) | 7 (90-95) | 3 (30-44) | 7 (90-99) | 1 (1-29) | 0 (0) | 0 (0) | 0 (0) | 0 (0)
6 | Clc1ccc(C(OB(c2ccccc2)c2ccccc2)(c2cncnc2)c2ccccc2Cl)cc1 (centres unmarked) [Compound 2, (o-Chlorophenyl)(p-chlorophenyl)(5-pyrimidinyl)methyl diphenylborinate] | 1.3 | 1.3 | – | 8 (96-99) | 9 (100) | 8 (96-99) | 0 (0) | 9 (100) | 8 (96-99) | 9 (100) | 7 (90-99) | 9 (100) | 0 (0) | 8 (96-99) | 3 (30-44)
7 | CC(C)(C)C(CCc1ccc(Cl)cc1)(Cn1cncn1)OB(c1ccc(F)cc1)c1ccc(F)cc1 (centres unmarked) [Compound 4, 1-Tert-butyl-3-(p-chlorophenyl)-1-(1H-1,2,4-triazol-1-ylmethyl)propyl bis(p-fluorophenyl)borinate] | 2.3 | 1.9 | 1.3 | 2 (15-29) | 6 (75-89) | 8 (96-99) | 6 (75-89) | 7 (90-95) | 6 (75-89) | 9 (100) | 9 (100) | 9 (100) | 0 (0) | 7 (90-95) | 8 (96-99)
8 | Clc1ccc(COC(Cn2ccnc2)c2ccc(Cl)cc2Cl)c(Cl)c1 (centres unmarked) [Miconazole nitrate, reference compound] | 4.1 | 2.5 | 2.4 | – | – | – | – | – | – | – | – | – | – | – | –
9 | Clc1ccc(C(Cn2ccnc2)OB(c2ccccc2)c2ccccc2)c(Cl)c1 (centres unmarked) [Compound 6, 1-(2,4-Dichlorophenyl)-2-(imidazol-1-yl)ethyl diphenylborinate] | 1.6 | 1.0 | 1.1 | 0 (0) | 5 (60-74) | 8 (96-99) | 0 (0) | 3 (30-44) | 0 (0) | 9 (100) | 7 (90-99) | 9 (100) | 0 (0) | 0 (0) | 0 (0)
10 | CC(C)(C)C(CCc1ccc(Cl)cc1)(Cn1cncn1)OB(c1ccccc1)c1ccccc1 (centres unmarked) [Compound 3, 1-Tert-butyl-3-(p-chlorophenyl)-1-(1H-1,2,4-triazol-1-ylmethyl)propyl diphenylborinate] | 2.0 | 1.8 | 1.7 | 0 (0) | 6 (75-89) | 8 (96-99) | 6 (75-89) | 8 (96-99) | 6 (75-89) | 9 (100) | 9 (100) | 9 (100) | 0 (0) | 6 (75-89) | 9 (100)

Source: patent publication US5591726A, “Heterocyclylalkyl diarylboron ester and thioester fungicidal agents” (American Cyanamid Company, priority 1994, dated 1997)
